Values quoted from earlier work as cited in patent US9592310B1 (priority 2004, dated 2017).

[O][Cl+][O-] [Chlorine dioxide]
concentration at which chlorine dioxide is stable in water and aqueous solutions: approximately 10 grams per Liter
